Experimental data taken from US7939270B2 (priority 2005, dated 2011).

Target: WT αHL protein pore (Staphylococcus aureus, UniProt P09616)
Format: binding
Details: pH 7

WT αHL protein pore, sequence (P09616 27-319 limits assumed): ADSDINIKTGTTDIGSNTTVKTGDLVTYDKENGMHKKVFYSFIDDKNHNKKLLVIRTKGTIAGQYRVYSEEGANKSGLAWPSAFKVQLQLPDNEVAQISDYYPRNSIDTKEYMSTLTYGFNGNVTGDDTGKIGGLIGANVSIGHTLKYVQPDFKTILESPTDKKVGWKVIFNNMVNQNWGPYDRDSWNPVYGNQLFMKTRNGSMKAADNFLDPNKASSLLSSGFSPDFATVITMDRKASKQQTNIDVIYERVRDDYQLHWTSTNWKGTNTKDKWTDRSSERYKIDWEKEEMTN

OC[C@H]1O[C@@H]2O[C@H]3[C@H](O)[C@@H](O)[C@@H](O[C@H]4[C@H](O)[C@@H](O)[C@@H](O[C@H]5[C@H](O)[C@@H](O)[C@@H](O[C@H]6[C@H](O)[C@@H](O)[C@@H](O[C@H]7[C@H](O)[C@@H](O)[C@@H](O[C@H]8[C@H](O)[C@@H](O)[C@@H](O[C@H]9[C@H](O)[C@@H](O)[C@@H](O[C@H]1[C@H](O)[C@H]2O)O[C@@H]9CO)O[C@@H]8CO)O[C@@H]7CO)O[C@@H]6CO)O[C@@H]5CO)O[C@@H]4CO)O[C@@H]3CO [γ-cyclodextrin]
binding kinetics and current attenuation of γ-cyclodextrin binding, pore inserted by the present method compared with the conventional method: the same
